Results: patent US20060199841A1, “Pharmaceutical combination for the treatment of spasticity and/or pain” (priority 2003, published 2006)
pIC50: −log10 of the molar value. Like-named read-outs stand apart in the source and are kept apart here.

Tests used:
[1] = system: GYKI 20039 induced tremor; experiment: Tremor test in mice (GYKI 20039 induced tremor); type: in vivo; conditions: for ED50: Mus musculus, ip; for Tremor inhibitory effect ED50: i.p.
Text: Tremor can be induced by administration of GYKI 20039 (3-(2,6-dichlorophenyl)-2-iminothiazolidine). The method was published by Kocsis P., Tarnawa I., Kovács Gy., Szombathelyi Zs., Farkas S., 2002; Acta Pharmaceut. Hung., 72:49-61; U.S. Pat. No. 5,340,823, 1994, U.S. Pat. No. 5,198,446, JP 1992270293, EP 0468825, 1990 HU 4647.
The aim of our experiments was to decide if the effect of tolperisone is influenced by co-administration of dextromethorphan.

[2] = system: monosynaptic reflex, hemisected spinal cord preparation; experiment: Spinal reflex inhibitory action in vitro, hemisected spinal cord preparation
Method: Spinal reflex Inhibitory Action, In Vitro
Our experiments were performed according to the methods described by Otsuka and Konishi (Otsuka and Konishi, Nature 1974. 252, 733.), with slight modifications (Kocsis et al., Brain Res. Bull. 2003. 60, 81.).
This experiment is suitable for testing central muscle relaxant activity. In the tremor test the efficacy of drugs may be considerably influenced by metabolic and pharmacokinetic factors, therefore we used an in vitro model to investigate the pharmacodynamic interaction between the components of the combination without the interference of the above factors.
We determined the dose-response curve for monosynaptic reflex inhibition of dextromethorphan alone, and in the presence of tolperisone or eperisone. In the control study we measured the effect of dextromethorphan at 0.25; 0.5 and 1 μM. In other experiments we added tolperisone (25 μM) or eperisone (20 μM) to the perfusion solution, and taking the equilibrium responses in these conditions as references, we measured the reflex inhibitory action of dextromethorphan. […] The potentiating effect of eperisone has been even more expressed (see Table 4.).

[3] = system: neuropathic pain (allodynia); experiment: Rat allodynia model (Bennet-Xie model, von Frey filaments); type: in vivo; conditions: for analgesic effect in the allodynia model (in words): i.p., dextromethorphan 10 mg/kg alone or in combined treatment with tolperisone
Text: In our experiments, we applied the Bennet-Xie model (G. J. Bennett, Y.-K. Xie, Pain 33: 87-107; 1988) to test the effect of the combination against neuropathic pain. We measured the threshold of the pain reaction with von Frey filaments calibrated to 0.9, 1.2, 1.8, 3.6, 5.4, 6.9, 8.9, 12 and 20 g.

pain = conditions: cited from earlier work
[4] = in humans; cited from earlier work
[5] = 15-minute pre-treatment, dose causing 50% tremor inhibition
[6] = 15-minute pre-treatment, dose causing 50% tremor inhibition, read-out: Tremor inhibitory effect ED50

SMILES: COc1ccc2c(c1)[C@]13CCCC[C@@H]1[C@H](C2)N(C)CC3 (racemic) [Dextromethorphan, (+/−)-3-methoxi-17-methylmorphinan]
- Inhibition of tremor (control %) Mean ([1]; 10 mg/kg dextromethorphan i.p.): 8 control %
- tremor inhibition (in words) ([1]; 10 mg/kg dextromethorphan, 10-minute pre-treatment): no significant tremor inhibition
- ED50 ([1]; read-out: ED50 of inhibition of the tremor): 24.4 mg/kg
- inhibition at 0.25 µM ([2]; dextromethorphan 0.25 μM alone): 20.7%
- inhibition at 0.5 µM ([2]; dextromethorphan 0.5 μM alone): 36.6%
- inhibition at 1 µM ([2]; dextromethorphan 1 μM alone): 40.9%
- pIC50 ([2]; dextromethorphan alone, read-out: IC50 of dextromethorphan, reflex inhibitory activity): 5.81
- Threshold value (g) mean ([3]; dextromethorphan 10 mg/kg i.p., time 0 min): 3.26 g
- Threshold value (g) mean ([3]; dextromethorphan 10 mg/kg i.p., time 10 min): 7.57 g
- Threshold value (g) mean ([3]; dextromethorphan 10 mg/kg i.p., time 20 min): 6.03 g
- analgesic effect in the allodynia model (in words) [3]: practically ineffective
- effect in the treatment of chronic pain (pain; clinical trials, Ben-Abraham and Weinbroum 2000): ineffective
- effect in an experimental human pain model (pain; clinically acceptable dose range, Kaippula et al. 1995): no effect
- relieving acute ischemic pain (pain; in humans, Plesan et al. 2000): without effect

SMILES: Cc1ccccc1-n1c(CF)nc2ccc(N)cc2c1=O [Afloqualon]
- Tremor inhibitory effect ED50 [1, 5]: 11.1 mg/kg

SMILES: NCC(CC(=O)O)c1ccc(Cl)cc1 (stereo not shown) [Baclofen]
- ED50 [1, 6]: 9.1 mg/kg

SMILES: CCc1ccc(C(=O)C(C)CN2CCCCC2)cc1 (stereo not shown) [Eperisone, 2-mehyl-1-(4-ethylphenyl)-3-(1-piperidinyl)-1-propanone]
- Tremor inhibitory effect ED50 [1, 5]: 51.8 mg/kg

SMILES: CC12CC3CC(C)(C1)CC(N)(C3)C2 [Memantine]
- ED50 [1, 6]: 20.5 mg/kg

SMILES: Cc1ccccc1OCC(O)CO (stereo not shown) [Mephenesin]
- ED50 [1, 6]: 81.5 mg/kg

SMILES: Clc1ccc2nsnc2c1NC1=NCCN1 [Tizanidine]
- ED50 [1, 6]: 0.73 mg/kg

SMILES: Cc1ccc(C(=O)C(C)CN2CCCCC2)cc1 (stereo not shown) [Tolperisone, 2-mehyl-1-(4-methylphenyl)-3-(1-piperidinyl)-1-propanone]
- Inhibition of tremor (control %) Mean ([1]; 40 mg/kg tolperisone i.p.): 27 control %
- Inhibition of tremor (control %) Mean ([1]; 60 mg/kg tolperisone i.p.): 48 control %
- Tremor inhibitory effect ED50 [1, 5]: 60.0 mg/kg
- Inhibition of tremor (%) ([1]; tolperisone 60 mg/kg i.p., dextromethorphan 0 mg/kg): 48.3%
- ED50 for the tremor inhibitory activity ([1]; tolperisone alone): 55.0 ± 7.2 mg/kg
- Reflex Inhibition (%) ([2]; tolperisone 25 μM alone): 26.97%
- Reflex Inhibition (%) ([2]; tolperisone 50 μM alone): 48.61%
- Reflex Inhibition (%) ([2]; tolperisone 100 μM alone): 70.30%
- pIC50 ([2]; tolperisone alone, sigmoid fitting, read-out: IC50 of tolperisone, reflex inhibitory activity): 4.28
- analgesic effect in the allodynia model (in words) [3]: significant analgesic effect
- Threshold value (g) mean ([3]; tolperisone 20 mg/kg i.p., time 0 min): 3.6 g
- Threshold value (g) mean ([3]; tolperisone 20 mg/kg i.p., time 10 min): 14.89 g
- Threshold value (g) mean ([3]; tolperisone 20 mg/kg i.p., time 20 min): 10.31 g
- oral bioavailability [4]: 16-20%
